According to US4220795A, “Cyclobutyl substituted derivatives of prostaglandin analogs” (Miles Laboratories, Inc., priority 1978, dated 1980):
Values after ≈ are worked out from the molar mass of the structure shown.

Key:
[1] = test system: blood pressure; assay: Effects on Blood Pressure and Heart Rate in the Anesthetized Cat (Test D); type: in vivo; details: Felis catus, iv, i.v. 0.01 to 10.0 mcg/kg, scored on hypotension, read-out: Activity value, Test D: Normal Feline Blood Pressure and Heart Rate (ED50 mmHg)
Protocol: D. Evaluation of the Effects of Prostaglandin Analogs III on Blood Pressure and Heart Rate in the Anesthetized Cat
The acute effects of test compounds on blood pressure and heart rate were determined in cats of either sex anesthetized with a mixture of pentobarbital sodium (35 mg/kg, i.v.) and barbital sodium (100 mg/kg, i.v.). Cannulas were placed in the trachea to allow adequate spontaneous ventilation, in a femoral artery for blood pressure recording with a strain gage transducer, and in a saphenous vein for drug administration. Heart rate was recorded by means of a cardiotachometer driven by the R wave of the electrocardiogram. After a period of 10 min of stable recordings of blood pressure and heart rate, the test compound was administered intravenously at doses increasing from 0.01 to 10.0 mcg/kg, spaced one log and injected at 10 min intervals. All doses were injected in a volume of 0.1 ml/kg. Modifications of blood pressure and heart rate induced by the test compound were expressed both in absolute units (mmHg and beats/min) and as percent of values recorded immediately before administration of each dose. Biphasic responses were tabulated in the order in which they occur. The direction of the observed changes was also noted (+ for increase and - for decrease).
Activity of compounds in this test was judged only on the basis of the degree of hypotension observed. Thus, the ED50 mmHg (dose decreasing blood pressure by 50 mmHg) was calculated graphically and the compound scored according to the following scale: […]

[2] = test system: rat uterus; assay: Effects on the Rat Uterus (Test F); details: rat uterus segments, 0.001 to 10.0 mcg/ml, 29° C.; read-out: Activity value, Test F: Effects on Rat Uterus (ED50, response of 50% that of carbachol)
Protocol: F. Evaluation of the Effects of Prostaglandin Analogs III on the Rat Uterus
The uterine stimulant effect of test compounds is determined in segments of uterus obtained from rats (140-160 g) pretreated subcutaneously with 1 mg/kg of diethylstibesterol 18 hr before the experiment. The tissues are placed in 10 ml chambers filled with de-Jalon solution at 29° C. and bubbled with 95% O2 and 5% CO2, and prepared for isometric recording with force displacement transducers. Preparations are stretched to an initial tension of 1 g and are left undisturbed for 30 min, after which two responses to 1 mcg/ml of carbachol added to the bath at a 10 min interval, are obtained (the value of the second response is recorded). Responses to increasing concentrations of the test compound (0.001 to 10.0 mcg/ml with one log intervals) are then recorded every 10 min. Preparations are washed four times after each response. All doses of drugs are administered in a 0.1 ml volume. Since it has been observed that the magnitude of the second response to carbachol, which is approximately 10% greater than the first, is close to the maximal response of the tissue, such value is taken as a measure of the sensititity of the particular segment. Responses to each concentration of the test compound are expressed in terms of percentage of the second response to carbachol and the ED50 (dose producing a response of 50% that of carbachol) is calculated graphically. Activity is scored according to the following scale: […]

[3] = test system: femoral blood flow; assay: Effects on Femoral Blood Flow in the Dog (Test C); type: in vivo, dog (mongrel); details: anesthetized dog, intraarterial 0.001 to 10 mcg
Protocol: C. Evaluation of the Effects of Prostaglandin Analogs III on the Femoral Blood Flow in the Dog
The peripheral vasodilator or constrictor effects of test compounds were determined in mongrel dogs of either sex, weighing between 10 and 20 kg anesthestized intravenously with 35 mg/kg of sodium pentobarbital. An external iliac artery was dissected immediately above the femoral arch for a length of approximately 5 cm and a previously calibrated, non-connulating electromagnetic flowmeter sensor with a lumen between 2.5 and 3.5 mm was placed snugly around the vessel. Cannulas were placed in a branch of the artery arising distally to the location of the flowmeter sensor for intraarterial drug administrations, in the contralateral femoral artery for systemic blood pressure recordings and in the trachea for artificial respiration with room air. Femoral blood flow and systemic blood pressure were continuously recorded with an electromagnetic flowmeter and pressure transducer, respectively.
After an adequate control period, test compounds were injected intraarterially at one log-spaced doses ranging from 0.001 to 10 mcg., in a volume of 0.5 ml and at 5 to 10 min intervals. Maximum changes in bloodflow, as well as any variations in blood pressure, were tabulated for each dose in absolute values (ml/min and mmHg). The calculations were made taking as control values those existing immediately before administration of each dose. The direction of the observed change (+ for increase and - for decrease) was also noted. The dose changing bloodflow by 100 ml/min (ED100 ml/min) was calculated graphically and was used for scoring activity as follows: […]

[4] = test system: blood pressure (hypertensive rat); assay: Effects on Blood Pressure in the Hypertensive Rat (Test E); type: in vivo; design: key: 0: Not significant at any time interval; 1: Significant at one time interval; 2: Significant at two time intervals; 3: Significant at three time intervals; 4: Significant at all four intervals; details: 1 mg/kg intraperitoneal, 2, 4, 6 and 8 hr
Protocol: E. Evaluation of the Effects of Prostaglandin Analogs III on Blood Pressure in the Hypertensive Rat
The acute antihypertensive activity of test compounds is determined in rats made hypertensive by the procedure of Grollman (A. Proc. Soc. Exper. Biol. Med., 57:102, [1944]). Female rats weighing between 60 and 100 g are anesthetized with ether, the right kidney approached through a flank retroperitoneal incision, decapsulated and tied with a figure-of-eight ligature. The animals are left to recover and two weeks later are again anesthetized and the contralateral kidney removed. Four weeks after the second operation the rats are subjected to indirect blood pressure measurements and those showing systolic pressure values greater than 160 mmHg are selected for drug testing.
Blood pressure is measured in the tail with an inflatable occluding cuff placed at the base of the extremity and a pulse detector located distally. The cuff is inflated to approximately 300 mmHg and is slowly deflated until pulsations appear, indicating the level of systolic pressure; diastolic pressure is not recorded by this procedure. All measurements are carried out in unanesthetized, unsedated animals maintained in a warm environment during the recording procedure and for at least 6 hr before. In all cases, three pressure readings are obtained in succession and mean values are calculated thereof.
Experiments are carried out in groups of five hypertensive rats in which systolic pressure is determined immediately before and 2, 4, 6 and 8 hr after the intraperitoneal administration of the test compound at a dose of 1 mg/kg. Drugs are diluted from stock solutions with phosphate buffer (Lee et al., Prostaglandins 3:29 [1973]), so as to inject this quantity in a volume of 1 ml/kg. Changes from control blood pressure values are calculated for each interval both in mmHg and in per-cent, and evaluated for significance by means of Wilcoxon's signed rank test (Wilcoxon and Wilcox, Some rapid approximate statistical procedures, Lederle Laboratories, Pearl River [1964]).

Row | SMILES | ED (50 mmHg) [1] [mg/kg] | EC50 [2] [µg/mL] | Activity value, Test C: Increase in Canidae Femoral Blood Flow (ED100 ml/min) [3] | Activity value, Test E: Effects on Blood Pressure in Hypertensive Rat (blood pressure decrease) [4]
1 | CCC1CC(C)([C@@H](O)/C=C/[C@H]2[C@H](O)CC(=O)[C@@H]2CCCCCCC(=O)OC)C1 (stereo partly drawn) [TR-4682, Methyl 11α,15S-dihydroxy-16,18-methano-16-methyl-9-oxoprost-13E-en-1-oate] | 0.00101 to 0.01 | > 10 | 3 (0.01-0.1) | 0
2 | COC(=O)CCCCCC[C@H]1C(=O)C[C@@H](O)[C@@H]1/C=C/[C@H](O)C1(C)CCC1 [TR-4691, Methyl 16,19-cyclo-11α,15S-dihydroxy-16-methyl-20-nor-9-oxoprost-13E-en-1-oate] | > 0.0101 | > 10 | 2 (0.11-1.0) | 0
3 | CCCCC1([C@@H](O)/C=C/[C@H]2[C@H](O)CC(=O)[C@@H]2CCCCCCCO)CCC1 [TR-4646, 16,16-Propano-1,11α,15S-trihydroxyprost-13E-en-9-one] | > 0.0101 | > 10 | 0 (>10.0) | 0
4 | COC(=O)CCCCCC[C@H]1C(=O)C[C@@H](O)[C@@H]1/C=C/[C@@H](O)C1(C)CCC1 [TR-4690, Methyl 16,19-cyclo-11α,15R-dihydroxy-16-methyl-20-nor-9-oxoprost-13E-en-1-oate] | 0.00101 to 0.01 | > 10 | 2 (0.11-1.0) | 0
5 | CCC1CC([C@@H](O)/C=C/[C@H]2[C@H](O)CC(=O)[C@@H]2CCCCCCCO)C1 (stereo partly drawn) [TR-4569, 16,18-Methano-1,11α,15R-trihydroxyprost-13E-en-9-one] | > 0.0101 | > 10 | 0 (>10.0) | 0
6 | CCC1CC([C@H](O)/C=C/[C@H]2[C@H](O)CC(=O)[C@@H]2CCCCCCCO)C1 (stereo partly drawn) [TR-4570, 16,18-Methano-1,11α,15S-trihydroxyprost-13E-en-9-one] | > 0.0101 | 0.101 to 1 (≈ 0.287 to 2.84 µM) | 0 (>10.0) | 0
7 | CC1([C@H](O)/C=C/[C@H]2[C@H](O)CC(=O)[C@@H]2CCCCCCCO)CCC1 [TR-4673, 16,19-Cyclo-16-methyl-20-nor-1,11α,15R-trihydroxyprost-13E-en-9-one] | > 0.0101 | > 10 | 0 (>10.0) | 1
8 | CCC1CC(C)([C@H](O)/C=C/[C@H]2[C@H](O)CC(=O)[C@@H]2CCCCCCCO)C1 (stereo partly drawn) [TR-4688, 16,18-Methano-16-methyl-1,11α,15R-trihydroxyprost-13E-en-9-onc] | > 0.0101 | > 10 | 0 (>10.0) | 0
9 | CCCCC1([C@H](O)/C=C/[C@H]2[C@H](O)CC(=O)[C@@H]2CCCCCCCO)CCC1 [TR-4645, 16,16-Propano-1,11α,15R-trihydroxyprost-13E-en-9-one] | > 0.0101 | > 10 | 1 (1.0.-10.0) | 0
10 | CCCCC1([C@@H](O)/C=C/[C@H]2[C@H](O)CC(=O)[C@@H]2CCCCCCC(=O)OC)CCC1 [TR-4677, Methyl 11α,15S-dihydroxy-9-oxo-16-,16-propanoprost-13E-en-1-oate] | > 0.0101 | 0.01 to 0.1 (≈ 0.0245 to 0.245 µM) | 0 (>10.0) | 0
11 | CCC1CC([C@H](O)/C=C/[C@H]2[C@H](O)CC(=O)[C@@H]2CCCCCCO)C1 (relative stereo) [TR-4676, (±)16,18-Methano-1-nor-2,11α,15S-trihydroxyprost-13E-en-9-one] | > 0.0101 | > 10 | 0 (>10.0) | 0
12 | CCC1CC([C@@H](O)/C=C/[C@H]2C=CC(=O)[C@@H]2CCCCCCCOC(C)=O)C1 (stereo partly drawn) [TR-4568, 1-Acetoxy-15R-hydroxy-16,18-methanoprosta-10,13E-dien-9-one] | > 0.0101 | > 10 | 0 (>10.0) | 0
13 | CCC1CC([C@@H](O)/C=C/[C@H]2[C@H](O)CC(=O)[C@@H]2CCCCCCC(=O)OC)C1 (stereo partly drawn) [TR-4248, Methyl 11α,15R-dihydroxy-16,18-methano-9-oxoprost-13E-en-1-oate] | 0.00011 to 0.001 | 0.101 to 1 (≈ 0.265 to 2.63 µM) | 2 (0.11-1.0) | 1
